Measured values published in patent US20060183797A1, “Fatty alcohols and fatty acid esters useful for treatment of inflammation” (priority 2001, published 2006).
“And” between values parts separate entries of the source, which are not always exact repeats. Identical values can stand only once.

Tests used:
Assay type in all cases: in vivo
adjuvant arthritis (AA) [1] = assay: Adjuvant arthritis (AA) in Lewis rats, inhibition of inflammation; conditions: for % Inhibition (100 μl) of the inflammation of adjuvant arthritis: 100 μl SC once, 14 days before induction of AA or on day 12 after induction, day of maximal inflammation
Protocol: AA was induced by immunizing inbred 8-10-week old Lewis rats (Harlan-Olac Limited, Blackthorn, Oxon, UK), at the base of the tail with 1 mg/0.1 ml of killed Mycobacterium tuberculosis (Sigma) in IFA (Sigma) as described (Pearson, 1956). Arthritis of the limbs was noted to develop 12-14 days later and was scored on a scale of 0-16 summing the severity of the inflammation of each of the 4 limbs on a scale of 0-4, as described (Holoshitz et al., 1983). The peak of the arthritis usually was observed around day 26 after immunization.
Control rats were untreated or treated by injections of saline. A positive control of immunosuppression was obtained by including a group of rats treated with the corticosteroid agent dexamethasone (200 μg) administered intraperitoneally every other day beginning on day 12 after induction.
The immunomodulator of the invention (100 μl oleyl alcohol, glycerol mono-oleate, linolenyl alcohol or cetyl alcohol) was administered subcutaneously (SC) once 14 days before induction of AA or on day 12 after induction of AA. The percent inhibition of inflammation measured on the day of maximal inflammation was computed as follows: [formula] […]

[2] = test system: experimental autoimmune encephalomyelitis (EAE); assay: Experimental autoimmune encephalomyelitis (EAE) in Lewis rats; conditions: 0.5 ml/kg SC once, 14 days before EAE induction
adjuvant arthritis (AA) [3] = assay: Adjuvant arthritis (AA) in Lewis rats, inhibition of inflammation; conditions: for suppression of inflammation on day of peak disease: day 26
[4] = vs non-treated control, listed as OA

**Q.** With `CCC=CCC=CC/C=C\CCCCCCCCO` [Linolenyl alcohol, cis-9,12,15-octadecatrienol] as the compound, how does the “% Inhibition (100 μl) of the inflammation of adjuvant arthritis” value (“% Inhibition (100 μl)” for short) (adjuvant arthritis (AA) [1]) read?
**A.** The value was 75%.

**Q.** Which “% Inhibition (100 μl)” value (adjuvant arthritis (AA) [1]) does the source give for `CCCCCCCCCCCCCCCCO` [Cetyl alcohol, cetyl alcohol] here?
**A.** The value was 66%.

**Q.** For `CCCCCCCC/C=C\CCCCCCCC(=O)O` [oleic acid, cis-9-octadecenoic acid, reference compound], which “effect on inflammation of adjuvant arthritis (in words)” value (adjuvant arthritis (AA) [1]; Lewis rats, Example 1) is on record?
**A.** Its value is “no effect”.

**Q.** `CCCCCCCC/C=C\CCCCCCCCO` [Oleyl alcohol, cis-9-octadecenol] was tested. Which “% Inhibition (100 μl)” value (adjuvant arthritis (AA) [1]) did it give?
**A.** The value was 78%.

**Q.** What about the “% Incidence of disease” value [2] of the same compound?
**A.** The value was 50.0%.

**Q.** What about the “effect on EAE clinical parameters (in words)” value [2] of the same compound?
**A.** Its value is “beneficial effect on all the clinical parameters”.

**Q.** What about the “Mean Onset of disease (Day No.)” value ([2]; rats without EAE counted as 25 days) of the same compound?
**A.** The value was 18.6 Day No.

**Q.** What about the “Disease duration” value ([2]; rats without EAE counted as zero) of the same compound?
**A.** Its value is 2.0 days.

**Q.** What about the “GMS (group mean score)” value ([2]; scale 0-5) of the same compound?
**A.** Its value is 0.22.

**Q.** What about the “MMS (mean maximal score)” value ([2]; scale 0-5) of the same compound?
**A.** The value was 0.88.

**Q.** What about the “% Activity GMS” value ([2]; vs non-treated control) of the same compound?
**A.** Its value is 77.1%.

**Q.** And the “% Activity Incidence” value ([2]; vs non-treated control)?
**A.** The value was 33.3%.

**Q.** And the “% Activity MMS” value ([2]; vs non-treated control)?
**A.** Its value is 63%.

**Q.** What about the “% Activity GMS” value [2, 4] of the same compound?
**A.** Its value is 77.1%.

**Q.** And the “% Activity MMS” value [2, 4]?
**A.** Its value is 63.0%.

**Q.** What about the “suppression of inflammation on day of peak disease” value (shortened to “suppression … of peak disease”) (adjuvant arthritis (AA) [3]; 10 μl SC once 14 days before induction) of the same compound?
**A.** The value was 14%.

**Q.** And the “suppression … of peak disease” value (adjuvant arthritis (AA) [3]; 50 μl SC once 14 days before induction)?
**A.** Its value is 61%.

**Q.** What about the “suppression … of peak disease” value (adjuvant arthritis (AA) [3]; 100 μl SC once 14 days before induction) of the same compound?
**A.** The value was 78%.

**Q.** And the “suppression … of peak disease” value (adjuvant arthritis (AA) [3]; 500 μl SC once 14 days before induction)?
**A.** The value was 90%.

**Q.** And the suppression of inflammation (adjuvant arthritis (AA) [3]; 500 μl, two further experiments)?
**A.** The suppression of inflammation was 96% and 91%.

**Q.** How did the “% Inhibition (100 μl)” value (adjuvant arthritis (AA) [1]) turn out when `CCCCCCCC/C=C\CCCCCCCC(=O)OCC(O)CO` (stereo not drawn) [Glycerol mono-oleate, glycerol monooleate] was run?
**A.** Its value is 98%.
